Data: patent US12172972B1, “3-(3-bromophenyl)-5-((2-isopropyl-5-methylphenoxy)methyl)-1,2,4-oxadiazole as an anti-cancer and antimicrobial compound” (KING FAISAL UNIVERSITY, priority 2023, dated 2024)

Experiments:
Type in all cases: cell-based
[1] = system: human osteosarcoma cells (MG-63); assay: cytotoxicity by SRB assay; settings: MG-63 cells, 0.01 μM to 100 μM, 72 h
Excerpt: (§1) The anticancer activity of the described synthesized compounds against highly aggressive androgen-independent metastatic human prostate cancer cells (PC3) and osteosarcoma (MG-63) cells. The human prostate cancer cells (PC3) and human osteosarcoma cells (MG-63) were obtained from Nawah Scientific Inc. (Mokatam, Cairo, Egypt) and cultured in DMEM (Dulbecco's modified eagle's medium), Gibco, USA, supplemented with fetal bovine serum (FBS) at a concentration of 10% and 100 U/mL of penicillin and streptomycin (PS). The Cells were incubated at 37° C. in a humidified environment that contained 5% CO2.
(§2) Cells were seeded in 96-well plates as aliquots of 100 μL cell suspension and incubated in a complete media for 24 h, afterward, cells were treated with 3-(3-bromophenyl)-5-((2-isopropyl-5-methylphenoxy)methyl)-1,2,4-oxadiazole at diverse concentrations ranging from 0.01 μM to 100 μM for 72 h. Then, cells were fixed at 4° C. for one hour with 150 μL of 10% trichloroacetic acid (TCA). […] Then, 150 μL of Tris pH 10.5 (10 mM) was added, and the absorbance was measured at 540 nm using a BMG LABTECH®-FLUOstar Omega microplate reader (Ortenberg, Germany). Half maximal inhibitory concentrations (IC50) values were calculated for each experiment using GraphPad Prism 6 software. […]
(§3) The inhibition was calculated using the following equation: Inhibition %=100−Average Viability

[2] = system: human prostate cancer cells (PC3); assay: cytotoxicity by SRB assay; settings: 0.01 μM to 100 μM, 72 h
Excerpt: as §1, §2, §3

Aspergillus flavus = assay: agar plate disc-diffusion, inhibition zone
Procedure: (§4) The agar plate disc-diffusion method was applied. […] The discs were then placed onto the surface of agar plates (nutrient agar for bacteria and Sabouraud's dextrose agar for fungi) seeded with the test organism. Each plate contained 15 mL of the agar medium, previously seeded with 0.2 mL of the broth culture of each organism pregrown for 18 hours. The plates were incubated at 37° C. for 48 h, and 72 h for fungi. The inhibition zones were measured in mm. Discs impregnated with DMSO were used as a control, and its inhibition zone was subtracted from the tested compound actual inhibition zone.

Bacillus cereus = assay: agar plate disc-diffusion, inhibition zone
Procedure: as §4

[3] = system: Chrysosporium keratinophilum; assay: agar plate disc-diffusion, inhibition zone
Procedure: as §4

Escherichia coli = assay: agar plate disc-diffusion, inhibition zone
Procedure: as §4

Pseudomonas aeruginosa = assay: agar plate disc-diffusion, inhibition zone
Procedure: as §4

Staphylococcus aureus = assay: agar plate disc-diffusion, inhibition zone
Procedure: as §4

different microbes = assay: antimicrobial activity, agar plate disc-diffusion (overall statement); settings: against different microbes
Procedure: The agar plate disc-diffusion method was applied. Sterilized filter papers (6 mm in diameter) were wetted with 10 μL of a solution of 3-(3-bromophenyl)-5-((2-isopropyl-5-methylphenoxy)methyl)-1,2,4-oxadiazole (3) to be tested, containing 10 mg/mL in DMSO, and the discs were allowed to air dry. The discs were then placed onto the surface of agar plates (nutrient agar for bacteria and Sabouraud's dextrose agar for fungi) seeded with the test organism. Each plate contained 15 mL of the agar medium, previously seeded with 0.2 mL of the broth culture of each organism pregrown for 18 hours. The plates were incubated at 37° C. for 48 h, and 72 h for fungi. The inhibition zones were measured in mm. Discs impregnated with DMSO were used as a control, and its inhibition zone was subtracted from the tested compound actual inhibition zone.

[4] = A = concentration of comp. = 10,000 μL
[5] = C = concentration of comp. = 50,000 μL

| SMILES | inhibition zone (Aspergillus flavus; [4]) [mm] | inhibition zone (Aspergillus flavus; B =) [mm] | inhibition zone (Aspergillus flavus; [5]) [mm] | inhibition zone (Bacillus cereus; [4]) [mm] | inhibition zone (Bacillus cereus; B =) [mm] | inhibition zone (Bacillus cereus; [5]) [mm] | inhibition zone [3, 4] [mm] | inhibition zone ([3]; B = concentration of comp.) [mm] | inhibition zone [3, 5] [mm] | inhibition zone (Escherichia coli; [4]) [mm] | inhibition zone (Escherichia coli; B =) [mm] | inhibition zone (Escherichia coli; [5]) [mm] | inhibition zone (Pseudomonas aeruginosa; [4]) [mm] | inhibition zone (Pseudomonas aeruginosa; B =) [mm] | inhibition zone (Pseudomonas aeruginosa; [5]) [mm] | inhibition zone (Staphylococcus aureus; [4]) [mm] | inhibition zone (Staphylococcus aureus; B = concentration of comp.) [mm] | inhibition zone (Staphylococcus aureus; [5]) [mm] | other results |
| --- | --- | --- | --- | --- | --- | --- | --- | --- | --- | --- | --- | --- | --- | --- | --- | --- | --- | --- | --- |
| Cc1ccc(C(C)C)c(OCc2nc(-c3cccc(Br)c3)no2)c1 [3-(3-bromophenyl)-5-((2-isopropyl-5-methylphenoxy)methyl)-1,2,4-oxadiazole] | – | – | – | – | – | – | – | – | – | – | – | – | – | – | – | – | – | – | antiproliferative activities [1]: excellent antiproliferative activities; antiproliferative activities [2]: excellent antiproliferative activities |
| O=C(O)c1cn(C2CC2)c2cc(N3CCNCC3)c(F)cc2c1=O [Cip., ciprofloxacin, reference compound] | 29 | 30 | 42 | 29 | 30 | 42 | 29 | 30 | 53 | 30 | 39 | 60 | 29 | 30 | 53 | 43 | 44 | 53 | – |
| Cc1ccc(C(C)C)c(OCc2nc(-c3cccc(Br)c3)no2)c1 [Compound 3, 3-(3-bromophenyl)-5-((2-isopropyl-5-methylphenoxy)methyl)-1,2,4-oxadiazole] | 20 | 24 | 32 | 27 | 29 | 40 | 25 | 28 | 47 | 28 | 36 | 52 | 26 | 28 | 40 | 12 | 16 | 19 | antimicrobial activities (different microbes): excellent antimicrobial activities |
